Experiments:
[1] = test system: Notch-processing activity of the γ-secretase-complex; assay: Notch cell-free assay (NICD production from recombinant Notch substrate N99); assay type: biochemical, mouse; conditions: 1 μM test compound, 0.3-0.5 μM Notch substrate, 37° C. for 6 to 22 h, western blotting
Method: The Notch transmembrane domain is cleaved by gamma secretase to release
Notch Intracellular C-terminal Domain (NICD).
To monitor the effect of compounds on NICD production, a recombinant Notch substrate (N99) was prepared. The Notch substrate, comprised of mouse Notch fragment (V1711-E1809), an N-terminal methionine and a C-terminal FLAG sequence ([…]), was expressed in E. coli and purified on a column containing an anti-FLAG M2 affinity matrix.
A typical Notch cell-free assay consisted of 0.3-0.5 μM Notch substrate, an enriched preparation of γ secretase and 1 μM of a test compound (compounds 8, 15, 92, 108, 114 and 130 of the present invention). Controls included a γ secretase inhibitor (GSI), such as (2S)—N-[2-(3,5-difluorophenyeacetyl]-L-alanyl-2-phenyl-glycine 1,1-dimethylethyl ester (DAPT) or (2S)-2-hydroxy-3-methyl-N-[(1S)-1-methyl-2-oxo-2-[[(1S)-2,3,4,5-tetrahydro-3-methyl-2-oxo-1H-3-benzazepin-1-yl]amino]ethyl]-butanamide (Semagacestat), and DMSO, the final concentration of DMSO being 1%. Recombinant Notch substrate was pre-treated with 17 μM DTT (1,4-dithiothreitol) and 0.02% SDS (Sodium Dodecyl Sulfate) and heated at 65° C. for 10 min. The mixture of substrate, gamma secretase and compound/DMSO was incubated at 37° C. for 6 to 22 hours (h). 6 h incubation was sufficient to produce the maximal amount of NICD and the cleaved product remained stable for an additional 16 h. Reaction products were processed for SDS PAGE (Sodium Dodecyl Sulfate-Poly Acrylamide Gel Electrophoresis) and western blotting. Blots were probed with an anti-Flag M2 antibody, followed by LI-COR infrared secondary antibody, and analyzed with the Odyssey Infrared Imaging System (LI-COR® Biosciences).

[2] = test system: T1, Notch-processing activity of the γ-secretase-complex; assay: Notch cell-based assay (N2-CHO/DL-CHO co-culture, Dual-Glo luciferase); set-up: species or system mouse; conditions: N2-CHO/DL-CHO co-culture 16 h; read-out: average IC50 Notch cell-based assay (luciferase readout)
T1 construct: average IC50 Notch cell-based assay (luciferase readout); other: N2-CHO/DL-CHO co-culture 16 h; five-point curve 3 μM-
Excerpt: The Notch cell-based assay was based on the interaction of Notch and its ligand in a co-culture system and utilized the Dual-Glo Luciferase Assay System (Promega) to monitor NICD production. 2 stable cell lines, N2-CHO and DL-CHO, were established to express full-length mouse Notch2 and Delta respectively. Cells that expressed mouse Notch were also transfected with 2 plasmids, pTP1-Luc and pCMV-RLuc, to express firefly and Renilla luciferase. Expression of firefly luciferase was under the control of TP1 promoter that responded to NICD activation.
N2-CHO cells were seeded at 1×10^5/well in 24-well plates the day before transfection. On the second day, cells were double transfected with 3 μg/well pTP1-Luc (expressing firefly luciferase) and 0.3 ng/well pCMV-RLuc (expressing Renilla luciferase). After 6 h incubation, transfected N2-CHO cells were washed and DL-CHO cells (2×10^5 cells/well) were added.
Compounds were pre-mixed with DL-CHO cell suspension in a five-point curve. Typically, compound treatment was performed in duplicate with a serial 1:10 dilution (3 μM-0.3 nM) in DMSO. The final concentration of DMSO in a given culture was 1%. Controls included non-transfected cells and transfected cells treated with a GSI or DMSO only. Luciferase assays were performed after 16 h co-culture and compound treatment.
The luciferase assay was carried out according to manufacture's instructions. Briefly, cells were washed with PBS (Phosphate Buffered Saline), lysed with Passive Lysis Buffer (Promega), and incubated at room temperature for 20 min. Lysates were mixed with Dual-Glo Luciferase Reagent and the firefly luciferase activity was measured by reading the luminescence signal in the EnVision 2101 Multilabel reader. Dual-Glo Stop & Glo Reagent was then added to each well and the Renilla luciferase signal was measured.

| IC50 [2] [nM] | Compound | effect on the Notch-processing activity of the γ-secretase-complex (production of NICD) [1] |
| --- | --- | --- |
| 45 | CC(NC(=O)Cc1cc(F)cc(F)c1)C(=O)NC(C(=O)OC(C)(C)C)c1ccccc1 [DAPT, (2S)—N-[2-(3,5-difluorophenyeacetyl]-L-alanyl-2-phenyl-glycine 1,1-dimethylethyl ester, reference compound] | blocked |
| 40 | CC(C)[C@H](O)C(=O)N[C@@H](C)C(=O)N[C@@H]1C(=O)N(C)CCc2ccccc21 [Semagacestat, (2S)-2-hydroxy-3-methyl-N-[(1S)-1-methyl-2-oxo-2-[[(1S)-2,3,4,5-tetrahydro-3-methyl-2-oxo-1H-3-benzazepin-1-yl]amino]ethyl]-butanamide, reference compound] | blocked |
